The source of these data is a melting point compilation (Tetko et al.; mined from patent text by program, amines drawn as free bases though some values may be those of a salt).

In general, melting point refers to the temperature, or range, at which the solid turns liquid. For `OCC[Si](c1ccccc1)(c1ccccc1)c1ccccc1`, the melting point was in the range of 96 to 97 °C. The result for `COC(=O)C=Cc1cnc(N2CCC[C@H]2CO)nc1NCc1ccc(OC)c(Cl)c1` reads 163 to 164 °C; that for `O=S(=O)(c1ccc(Cl)cc1)C(c1ccncc1)C1CCOCC1` (configuration not stated), 208 to 209 °C; that for `Cc1c(NC(=O)c2ccc(-c3ccc(F)cc3)c(F)c2)ccc2cc(CN3CCCC3)cnc12`, 176 to 178 °C. The value for `CCCCc1oc2ccccc2c1S(=O)(=O)c1ccc(O)cc1` was 163 to 165 °C.

In the case of `O=C1CC2(C(=O)N1)c1ccccc1Oc1ccccc12`, the melting point lay in the range of 226 to 228 °C. The result for `O=C(CCCSc1ccccc1)N1C(=O)OCC1Cc1ccccc1` (configuration not stated) reads 84 to 85 °C; that for `NC1CC2=CNC=C3C=COCC1=C32` (configuration not stated), 202 to 203 °C; that for `O=C(c1cccs1)c1scc(Br)c1Br`, 105 to 109 °C. Compound `CCN(CC)C(=O)c1ccc2c(c1)C(=C(Cl)Cl)OC(C(Cl)(Cl)Cl)O2` (configuration not stated) showed a melting point of 123 to 124 °C. The result for `CCCn1c(CCO)nc(C(C)C)c1Sc1cc(Cl)cc(Cl)c1` reads 88 to 89 °C; that for `N#Cc1cccc(CCn2ncc3c(=O)n(-c4ccccc4)c4ncccc4c32)c1`, 220 to 224 °C; that for `COc1c(O)c(C(C)=O)c(OC)c2c1OCC2`, 100 to 101 °C. Turning to `NC(=O)c1c(F)ccc(OCc2nc3ccc(Cl)cc3s2)c1F`, the melting point lay within 190 to 191 °C. Regarding `CC(=NOCCOc1ccc(C[C@H](Oc2ccc(C(C)(C)C)cc2)C(=O)O)cc1)c1ccc(-c2ccccn2)cc1`, the melting point lay within 148 to 150 °C. `CS(=O)(=O)c1ccc(C2=C(c3ccc(F)c(F)c3)CCC2)cc1` gave a melting point of 114 to 115 °C. The compound `CC(=O)NC(C)(C)c1ccc(CO)cc1` registered a melting point of 126 to 129 °C. `CCOC(=O)c1ccsc1Nc1ccc(F)cc1[N+](=O)[O-]` showed a melting point of 125 °C. The value for `CCCCN(C(=O)Nc1ccc(F)cc1F)c1cnc2ccc(Cl)cc2c1-c1ccccc1Cl` was 63 to 66 °C; that for `COC(=O)C1(Sc2cc(N=c3sc(=O)n4n3CCCC4)c(F)cc2Cl)CC1` was 149 °C. As for `C#CCOC(=O)c1ccc2ccccc2c1`, the melting point is 68 to 70 °C.

Turning to `Cn1c(C(F)(F)F)cc(=O)n(-c2c(F)cc(Cl)c3nc(C(Br)Br)oc23)c1=O`, the melting point was 144 to 146 °C. The result for `CNC(=O)Oc1cc(C)c(NS(C)(=O)=O)c(C)c1` reads 178 to 185 °C. The result for `COC(=O)c1ccc(COc2cc(C(C)(C)C)nn2Cc2ccc(C(=O)OC)cc2)cc1` reads 93 to 94 °C. The value for `CCCNc1ccc([N+](=O)[O-])cc1C(=O)c1ccccc1` was 150 °C. In the case of `COC(=O)C[C@]1(C)C[C@@H](COc2ccc(-c3ccc(C#N)cc3)cc2)NC1=O`, the melting point was in the range of 105 to 108 °C.

On to `O=C(O)c1ccc(-c2ccc3c(c2)CCN(CCN2CCCC2)C3=O)cc1`, for which the melting point was in the range of 247 to 249 °C.

Compound `CC(C)(C)c1ccc(CCCO)cc1NC(=O)CC1c2ccccc2Oc2ccccc21` returned a melting point of 185 to 186 °C.

For the compound `CCOC(=O)C(NC(=O)OC(C)(C)C)c1csc(NC(=O)OCC(Cl)(Cl)Cl)n1` (configuration not stated), the melting point fell in the range of 94 to 95 °C. Turning to `CCCCCCCCCCCCCc1ccc(-c2nc(-c3ccccc3Cl)nn2C)cc1`, the melting point is 55 to 57 °C.

`CCOC(=O)c1c2n(c3c(F)c(N4CCC(N(C)C)C4)c(F)cc3c1=O)C(C)S2` (configuration not stated): the melting point fell in the range of 165 to 168 °C. The compound `COc1cc(-c2nc3ccccc3n2Cc2ccc(C)cc2)cc(OC)c1OC` returned a melting point of 84.5 °C. The value for `CCc1ccc(C(=O)Nc2ccccc2)cc1[N+](=O)[O-]` was 111 to 113 °C. The result for `O=C(NC1CCCCC1)N(CCCN1CCC(Cc2ccccc2)CC1)c1ccccc1` reads 106 to 108 °C. `OC(Cn1cncn1)(c1ccc(Cl)cc1)C1(n2cnc(Cl)n2)CC1` (configuration not stated) yielded a melting point of 156 °C. The value for `CCOC(=O)c1cc2c(OC)cc3c(c2[nH]1)CCCC3` was 202 to 203 °C; that for `N=C(N)Nc1nc2ccc(OCc3ccccc3)cc2[nH]1` was 224 to 227 °C; that for `CN1c2ccccc2N(C(=O)CN2CCCC2)c2ccccc2S1(=O)=O` was 175 to 177 °C. The value for `O=C(O)c1ccc(NCCCc2ccccc2)cn1` was 167 to 169 °C. The compound `OCC1Cc2c(c(Cl)cc3c(-c4ccccc4Cl)noc23)O1` (configuration not stated) gave a melting point of 162 to 163 °C. The compound `CCOC(=O)c1c(C(F)F)nn(C)c1Cl` gave a melting point of 37 to 39 °C. The value for `Clc1ccc(C2CN3C(=N2)Sc2ccccc23)cc1` (configuration not stated) was 143 °C.

`CC(C)(C)NCC(O)c1ccc(O)c(NC=O)c1` (configuration not stated) showed a melting point of 195 to 196 °C. With `CN(c1cccc2cc(C3=NCC(C)(CN4CCC5(CC4)OCCO5)S3)[nH]c12)S(=O)(=O)c1cccs1` (configuration not stated), the melting point was in the range of 172 to 173 °C. In turn, `O=C(CSC1c2ccccc2COc2ccc(OCc3ccc4ccc(Cl)cc4n3)cc21)NS(=O)(=O)c1ccccc1` (configuration not stated) yielded a melting point of 130 to 135 °C. `Cc1cnc(OCC2CN(C(C)(C)C)C(c3ccccc3)O2)c2cc(Cl)ccc12` (configuration not stated) yielded a melting point of 90 to 92 °C. Regarding `Cc1c(-c2ccc3cn[nH]c3c2)cc(Nc2ccc(N3CCOCC3)cn2)c2nccn12`, the melting point is 160 to 164 °C. The result for `CCC(C(=O)O)c1ccc2c(c1)Cc1ccccc1S2` (configuration not stated) reads 74 to 77 °C; that for `C/C=C/C(=O)NC(=O)OC`, 149 to 150 °C; that for `CCN1c2ncc(CS(=O)(=O)c3ccccc3)cc2C(=O)N(C)c2ccc(Cl)nc21`, 96 to 98 °C.

The compound `O=C(NCCOC1CCCCO1)c1cc([N+](=O)[O-])cc([N+](=O)[O-])c1N(CCO)CCCl` (configuration not stated) came in with a melting point of 106 to 108 °C. The result for `CC(C)(C)C1C=C(Cn2nc(-c3ccccc3-c3nn(CC4=CC(C(C)(C)C)C(O)(C(C)(C)C)C=C4)c(=O)o3)oc2=O)C=CC1(O)C(C)(C)C` (configuration not stated) reads 220 °C; that for `Cc1cncc(-c2nc3cc(NC(=O)c4c(C(=O)N5CCC5)cnn4C)ccn3n2)c1`, 262 to 264 °C. The value for `CSc1ccc2oc3ccccc3c2c1` was 85 to 87 °C; that for `COCN1C(C)=C(C(=O)OCOC(=O)C(C)(C)C)C(c2cccc(Cl)c2Cl)C(C(=O)OCOC(=O)C(C)(C)C)=C1C` was 103 to 104 °C. The value for `COC(=O)c1cc2c3ccccc3n(C(C)=O)c2s1` was 179 to 181 °C; that for `O=C(O)c1cc(=O)c2cccc(/C=C/c3ccc(OCCCCc4ccc(F)cc4)cc3)c2o1` was 161 to 162 °C. `O=C(Cc1ccc(OCc2ccccc2)cc1)NC1(C(=O)O)Cc2ccc(-c3ccc(Cl)cc3)cc2C1` (configuration not stated) displayed a melting point of 234 °C. Take `Fc1cc2c(cc1F)CC(n1cc[nH]c1=S)C2`: the melting point lay in the range of 255 to 257 °C.

For the compound `CCCSc1ncc(CC(NC(=O)C2CCCC2)C(=O)O)n1Cc1ccccc1Cl` (configuration not stated), the melting point lay in the range of 173 to 175 °C.

The compound `CCOc1nn(-c2ccc(C(F)(F)F)cc2)cc1CCCOc1cc(CCC(=O)O)n(-c2ccccc2)n1` yielded a melting point of 126 to 127 °C. The value for `Cc1ccccc1-c1nc(N)ncc1-c1ccc(=O)n(C(C)C)n1` was 203 °C. The value for `CCCCNc1ncc2ccc(=O)n(C)c2n1` was 146 to 147 °C; that for `COc1ccc(C=O)cc1CCl` was 55 to 57 °C; that for `CN(O)C(=O)c1ccc(CCCCc2ccc(C(=O)N(C)O)cc2)cc1` was 157 to 159 °C. Compound `CNC(=O)c1nc(-c2ccccc2)c(-c2ccc(=O)n(C(C)C)n2)s1` yielded a melting point of 165 to 168 °C. In turn, `Nc1nc(-c2cc(Cl)ccc2Cl)nc(N2CCCC(O)C2)n1` (configuration not stated) displayed a melting point of 178 to 180 °C. `CC(C)(C)OC(=O)n1cc(C=C(Br)Br)c2ccccc21` returned a melting point of 101 to 104 °C. The value for `CCc1cn(Cc2ccccc2)c(=O)[nH]c1=O` was 154 to 155 °C; that for `CCC(C)(C)c1ccc(OCC2CN=C(N)O2)cc1` (configuration not stated) was 104 °C; that for `Cc1cc(OC(F)(F)C(F)C(F)(F)F)ccc1NC(=O)c1cccc(I)c1` (configuration not stated) was 188 °C. The value for `COc1cc(OCc2cccnc2)ccc1/C=C/c1cc(/C=C/c2ccc3cc[nH]c3c2)n[nH]1` was 90 to 95 °C. The result for `NC(=O)c1cc([N+](=O)[O-])ccc1SSc1ccc([N+](=O)[O-])cc1C(N)=O` reads 266 to 269 °C; that for `CCn1ncc(C(=O)c2cc(C)c3c(c2C)C(=O)C(C)(C)CS3(=O)=O)c1O`, 160 to 163 °C. Consider `COc1cc(C(O)CS(C)(=O)=O)cc(OC)c1N(C)C(C)=O` (configuration not stated), for which the melting point was in the range of 175 to 177 °C.

Take `COC(=O)Nc1cn2cc(Sc3ccccn3)ccc2n1`: the melting point fell in the range of 230 to 236 °C. The value for `CC(=O)SCC(=Cc1cccc2ccccc12)C(=O)NCCC(=O)OCc1ccccc1` was 78 °C; that for `COCCOc1cc2cc(C(=O)OC)c(C(=O)OC)c(-c3ccncc3)c2cc1OC` was 156 to 158 °C.

The compound `Nc1nc2c(s1)CCN(CC=Cc1cccc(C(F)(F)F)c1)CC2` registered a melting point of 102 to 105 °C. The result for `CC(C)(C)c1cccc(CNC(c2ccccc2)C(NCc2cccc(C(C)(C)C)c2O)c2ccccc2)c1O` (configuration not stated) reads 143 to 144 °C; that for `C=CCSCC(O)(Cn1cncn1)c1ccc(Cl)cc1Cl` (configuration not stated), 92 to 94 °C; that for `CCCOc1ccccc1C(=O)Nc1ncccc1C(N)=O`, 181 to 184 °C.

With `O=c1[nH]c2cc(I)ccc2n(CP(=O)(O)O)c1=O`, the melting point was in the range of 295 to 297 °C. `CCCC(=O)c1cnc2c(OCCOC)cccc2c1Nc1ccccc1C` came in with a melting point of 75 to 77 °C. The value for `O=C(O)c1ccc2oc(=O)n(Cc3ccc4[nH]c(=O)[nH]c4c3)c2c1` was 230 to 231 °C; that for `O=C(Nc1ccc(C(F)(F)F)cc1)N1CC2CCc3cc(Cl)ccc3C2=N1` (configuration not stated) was 196 to 199 °C; that for `CCCCCCCCCC[C@@]1(C)OO[C@@H]2C[C@H]1CC(=O)[C@@H]2C` was 40 °C.
